Data published in publication PMC6276031 (International Journal of Neuropsychopharmacology, 2018).

Tests used:
[1] = target: T1, dopamine D2 receptor (D2R, D2L long isoform) (Homo sapiens, UniProt P14416); experiment: GIRK1/[…] current activation in Xenopus oocytes; type: cell-based
[2] = target: dopamine D3 receptor (D3R) (Homo sapiens, UniProt P35462); experiment: GIRK1/[…] current activation in Xenopus oocytes expressing D3R; type: cell-based
[3] = target: T1, dopamine D2 receptor (D2R, D2L long isoform); experiment: cell-based; conditions: read-out: % of the mean response to 1 μM dopamine

T1 sequence (P14416 whole entry, canonical isoform): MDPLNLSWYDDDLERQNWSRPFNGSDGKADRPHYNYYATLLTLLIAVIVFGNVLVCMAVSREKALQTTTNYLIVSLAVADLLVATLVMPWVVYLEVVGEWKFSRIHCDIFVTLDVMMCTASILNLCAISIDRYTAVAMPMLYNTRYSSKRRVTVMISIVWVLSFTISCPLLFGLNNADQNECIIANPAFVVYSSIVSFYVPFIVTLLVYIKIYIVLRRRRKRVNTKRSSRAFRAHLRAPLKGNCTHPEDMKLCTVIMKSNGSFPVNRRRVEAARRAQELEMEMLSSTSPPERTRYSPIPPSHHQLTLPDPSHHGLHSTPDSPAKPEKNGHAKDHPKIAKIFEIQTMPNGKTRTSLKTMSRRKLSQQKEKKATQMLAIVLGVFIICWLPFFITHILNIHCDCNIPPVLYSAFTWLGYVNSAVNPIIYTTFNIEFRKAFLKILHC
Sequence of dopamine D3 receptor (D3R) (P35462 whole entry, canonical isoform): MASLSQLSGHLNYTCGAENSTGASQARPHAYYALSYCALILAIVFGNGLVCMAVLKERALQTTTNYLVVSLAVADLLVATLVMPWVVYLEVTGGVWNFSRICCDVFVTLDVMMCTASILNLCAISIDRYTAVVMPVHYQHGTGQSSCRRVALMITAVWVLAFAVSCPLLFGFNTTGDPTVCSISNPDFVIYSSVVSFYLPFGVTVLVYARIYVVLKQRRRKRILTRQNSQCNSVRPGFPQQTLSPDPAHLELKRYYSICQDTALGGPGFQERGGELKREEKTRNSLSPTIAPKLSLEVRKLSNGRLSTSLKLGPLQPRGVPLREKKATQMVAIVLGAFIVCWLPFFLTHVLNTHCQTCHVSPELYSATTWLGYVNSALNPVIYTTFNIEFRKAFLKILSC

EC50 [1] [nM] | EC50 [2] [nM] | SMILES | Emax [3] [%]
185 | 62.1 | Clc1cccc(C2CCN(CCCOc3ccc4scnc4c3)CC2)c1Cl [UNC9994] | –
– | – | CCCN1CCC[C@@H](c2cccc(O)c2)C1 [(-)-3-PPP] | 27.7 ± 7.5
